Assay results published in patent US20080045584A1, “Use of Docetaxel for Treating Hepatocellular Carcinoma” (priority 1999, published 2008).
Like-named read-outs stand apart in the source and are kept apart here.

Experiments:
[1] = test system: hepatocellular carcinomas; details: cited from earlier work
Hep G2 cells [2] = assay: Flow cytometric analysis of DNA content (cell cycle, sub-G0/G1); format: cell-based, human; details: Hep G2, 1 μM, 24 hours
Method: (§1) Lysing buffer (0.5% Triton X-100, 0.2 μg/ml Na2EDTA.2H2O, and 1% bovine serum albumin in PBS) was added to the cell pellets which were then left on ice for 15 minutes. 100% methanol pre-cooled to −20° C. was then added to the mixture, which was then centrifuged at 300×g for 5 minutes. The supernatant was discarded and the cell pellet was washed with PBS. The washed pellet was stained with a DNA staining solution (50 μg/ml propidium iodide, and 5 kunitz/ml of RNase A) for 30 minutes at 4° C. in the dark. The DNA content of each cell was measured using a Becton Dickinson FACS Calibur flow cytometer as set out below.
(§2) Cells (10000) were analyzed on a Becton Dickinson FACS Calibur flow cytometer using an argon-ion laser (15 mWatt) with incident beam at 488 nm. For PI exclusion assay, red fluorescence was collected through a 585 nm filter and the cell debris signals were removed by FSC-SSC gating. Data were acquired and analyzed using FACS/CELL Quest software on a Power Macintosh 7600/120 computer. Apoptotic cells and cells at specific cycle phases were determined by ModFit LT software.
(§3) Table 1 gives figures for cell membrane permeability of the hepatoma cells, following treatment with paclitaxel and docetaxel. Table 2 details the percentage of apoptotic (sub-G0/G1) cells found after paclitaxel and docetaxel treatment.

Hep 3B cells [3] = assay: as above; format: cell-based, human; details: for % of apoptotic (sub-G0/G1) cells: 72 hrs
Method: as §1, §2, §3

HA22T/VGH cells [4] = assay: as above; format: cell-based, human; details: for % of apoptotic (sub-G0/G1) cells: 72 hrs
Method: as §1, §2, §3

Hepa 1-6 cells [5] = assay: Propidium iodide (PI) exclusion assay, flow cytometry; format: cell-based, murine
Method: (§4) Cells were grown on 5-cm^2 flasks (CORNING) and treated with paclitaxel and docetaxel as set out above. Propidium iodide (10 μg/ml) was then added for 15 minutes incubation at 37° C. Then, medium was collected prior to harvest of the adherent cells. Both suspended and attached cells were collected and resuspended with 500 μl PBS for flow cytometry analysis as set out below. Debris signals were removed by FSC-SSC gating.
as §2
(§5) Data are mean±standard error of mean from duplicated sample of at least three independent experiments. Cells were treated with drugs for 24-72 hours, and membrane permeability was measured by flowcytometric analysis of propidium exclusion in viable hepatoma cells. Data are the percentage of cells with intact cell membrane as compared to control

hepatocellular carcinoma = details: phase II clinical trial; cited from earlier work
Hepa 1-6 cells [6] = assay: Flow cytometric analysis of DNA content (cell cycle, sub-G0/G1); format: cell-based, murine; details: for % of apoptotic (sub-G0/G1) cells: Hepa 1-6, 24 hrs
Method: as §1, §2, §3

Hep G2 cells [7] = assay: Propidium iodide (PI) exclusion assay, flow cytometry; format: cell-based, human
Method: as §4, §2, §5

Hep 3B cells [8] = assay: as above; format: cell-based, human
Method: as §4, §2, §5

HA22T/VGH cells [9] = assay: as above; format: cell-based, human
Method: as §4, §2, §5

Hep G2 cells [10] = assay: Cell viability study: MTT assay; format: cell-based, human; details: Homo sapiens, HepG2, Hep G2, 10 μM, read-out: viability, % of control
Method: The experiments detailed below involve human hepatoma cell lines Hep3B (ATCC designation HB 8064), HepG2 (ATCC designation HB 8065) and HA22T/VGH, and murine hepatoma cell line Hepa 1-6. These cells were cultured in DMEM (GIBCO, BRL) containing 10% fetal bovine serum (Hyclone), 0.01 mg/ml gentamycin and 0.1 mM non-essential amino acid. Cells were grown in a CO2 incubator at 37° C., with 5% CO2 and 95% filtered air.
Paclitaxel was dissolved in dimethylsulfoxide (DMSO) and docetaxel was dissolved in ethanol as stock solutions. The final concentration of vehicle was less than 0.1%.
Cells were cultured in a 96 well cell culture cluster (COSTAR) at a density of 4×10^4 cells/ml. After drug treatment for 24 hours or 72 hours, medium was discarded and replaced with an equal volume (100 μl) of fresh medium containing MTT (0.456 mg/ml; 3-[4,5-Dimethylthiazol-2-yl]2,5-diphenyl-tetrazolium bromide) and incubated for 1.5 hours at 37° C. The fresh medium was then discarded, and 100 μl DMSO was then added. Cell viability was determined by colorimetric comparison by reading OD values from a microplate reader (SPECTRA MAX250) at an absorption wavelength of 570 nm.
Data are the mean i standard error of mean from duplicate samples of three independent experiments.

Hep G2 cells [11] = assay: DNA fragmentation electrophoresis analysis; format: cell-based, human; details: Hep G2, 0.1 and 1 μM, 72 hours
Method: DNA fragmentation assessment was according to the method Herrmann et al, Nucleic Acids Res., 22, 5506-5507, 1994.
Briefly, HEP G2 cells (2×10^7) were treated for 72 hours with paclitaxel and docetaxel as set out above and centrifuged. The thus obtained cell pellets were resuspended with NP-40 lysis buffer (1% NP-40 in 20 mM EDTA, 50 mM Tris-HCl, pH 7.5). After lysis of cells for a few seconds, the supernatants were collected (5 minutes at 1600×g). The extraction was repeated with the same lysis buffer. SDS (final concentration 1%) and RNase were added (final concentration 2.5 μg/μl) to supernatants and incubated for 2 hours at 56° C. followed by digestion with proteinase K (2.5 μg/μl) for 2 hours at 37° C. Then, the mixtures were added to 10 M ammonium acetate prior to 100% ethanol precipitation for 30 minutes at −20° C. The DNA was collected by centrifugation (10 min at 12000 ×g) followed by electrophoresis on 1.5% agarose gel.
In FIG. 3, M is a 100 base pair marker. […] Lanes 2 and 3 show mean paclitaxel (0.1 and 1 μM) treatment groups. Lanes 4 and 5 show mean docetaxel (0.1 and 1 μM) treatment groups.

COc1cc2c(cc1O)CC[C@@H]1[C@@H]2CC[C@]2(C)[C@@H](O)CC[C@@H]12 [2-methoxyestradiol]
tolerability ([1]; mice, 1 month of daily treatment): well tolerated
activity against hepatocellular carcinomas ([1]; mouse, in vivo): active

CC(=O)O[C@H]1C(=O)[C@@]2(C)[C@H]([C@H](OC(=O)c3ccccc3)[C@]3(O)C[C@H](OC(=O)[C@H](O)[C@@H](NC(=O)c4ccccc4)c4ccccc4)C(C)=C1C3(C)C)[C@]1(OC(C)=O)CO[C@@H]1C[C@@H]2O [Paclitaxel]
effect on cell cycle progression (DNA histogram) (Hep G2 cells [2]): obvious G2/M phase arrest
effect on cell cycle progression (Hep 3B cells [3]; 0.1 μM or 1 μM, 24 hours): G2/M arrest
% of apoptotic (sub-G0/G1) cells (Hep 3B cells [3]; 0.1 mM (text: μM)): 38.37%
% of apoptotic (sub-G0/G1) cells (Hep 3B cells [3]; 1 mM (text: μM)): 47.01%
% of apoptotic (sub-G0/G1) cells (HA22T/VGH cells [4]; 0.1 mM (table head; text: μM)): 0%
% of apoptotic (sub-G0/G1) cells (HA22T/VGH cells [4]; 0.1 mM (table head; text: μM), listed as paclitaxel): No significant sub-G0/G1 population
% of apoptotic (sub-G0/G1) cells (HA22T/VGH cells [4]; 1 mM (table head; text: μM)): 0%
% of apoptotic (sub-G0/G1) cells (HA22T/VGH cells [4]; 1 mM (table head; text: μM), listed as paclitaxel): No significant sub-G0/G1 population
effect on cell cycle progression (HA22T/VGH cells [4]; increasing concentrations 0.001 μM to 1 μM, 24 hours): elevated percentage of G2/M cells
percentage of cells with intact cell membrane as compared to control (Hepa 1-6 cells [5]; Hepa 1-6, 24 hrs, 0.01 μM): 93.17 ± 3.8%
percentage of cells with intact cell membrane as compared to control (Hepa 1-6 cells [5]; Hepa 1-6, 24 hrs, 0.1 μM): 67.20 ± 4.4%
percentage of cells with intact cell membrane as compared to control (Hepa 1-6 cells [5]; Hepa 1-6, 24 hrs, 1 μM): 62.65 ± 7.6%
percentage of cells with intact cell membrane as compared to control (Hepa 1-6 cells [5]; Hepa 1-6, 72 hrs, 0.01 μM): 62.95 ± 5.6%
percentage of cells with intact cell membrane as compared to control (Hepa 1-6 cells [5]; Hepa 1-6, 72 hrs, 0.1 μM): 27.79 ± 1.3%
percentage of cells with intact cell membrane as compared to control (Hepa 1-6 cells [5]; Hepa 1-6, 72 hrs, 1 μM): 15.51 ± 1.0%
anti-cancer effect in HCC patients (hepatocellular carcinoma): no significant anti-cancer effect
effect on cell cycle progression (Hepa 1-6 cells [6]; Hepa 1-6, 0.1 μM and 1 μM, 24 hours): G2/M phase arrest
cell cycle profile (Hepa 1-6 cells [6]; Hepa 1-6, 0.1 μM and 1 μM, 72 hours): most of the cells were dead
% of apoptotic (sub-G0/G1) cells (Hepa 1-6 cells [6]; 0.01 mM (text: μM)): 24.02%
% of apoptotic (sub-G0/G1) cells (Hepa 1-6 cells [6]; 0.1 mM (text: μM)): 55.64%
% of apoptotic (sub-G0/G1) cells (Hepa 1-6 cells [6]; 1 mM (text: μM)): 64.38%
percentage of cells with intact cell membrane as compared to control (Hep G2 cells [7]; Hep G2, 24 hrs, 0.01 μM): 93.63 ± 1.1%
percentage of cells with intact cell membrane as compared to control (Hep G2 cells [7]; Hep G2, 24 hrs, 0.1 μM): 85.71 ± 6.8%
percentage of cells with intact cell membrane as compared to control (Hep G2 cells [7]; Hep G2, 24 hrs, 1 μM): 66.71 ± 7.2%
percentage of cells with intact cell membrane as compared to control (Hep G2 cells [7]; Hep G2, 72 hrs, 0.01 μM): 56.58 ± 28.7%
percentage of cells with intact cell membrane as compared to control (Hep G2 cells [7]; Hep G2, 72 hrs, 0.1 μM): 43.79 ± 11.7%
percentage of cells with intact cell membrane as compared to control (Hep G2 cells [7]; Hep G2, 72 hrs, 1 μM): 13.27 ± 4.3%
percentage of cells with intact cell membrane as compared to control (Hep 3B cells [8]; 24 hrs, 0.01 μM): 77.35 ± 11.7%
percentage of cells with intact cell membrane as compared to control (Hep 3B cells [8]; 24 hrs, 0.1 μM): 63.50 ± 4.0%
percentage of cells with intact cell membrane as compared to control (Hep 3B cells [8]; 24 hrs, 1 μM): 52.28 ± 4.1%
percentage of cells with intact cell membrane as compared to control (Hep 3B cells [8]; 72 hrs, 0.01 μM): 57.00 ± 7.9%
percentage of cells with intact cell membrane as compared to control (Hep 3B cells [8]; 72 hrs, 0.1 μM): 8.09 ± 2.3%
percentage of cells with intact cell membrane as compared to control (Hep 3B cells [8]; 72 hrs, 1 μM): 1.90 ± 0.3%
percentage of cells with intact cell membrane as compared to control (HA22T/VGH cells [9]; 24 hrs, 0.01 μM): 94.08 ± 18.6%
percentage of cells with intact cell membrane as compared to control (HA22T/VGH cells [9]; 24 hrs, 0.1 μM): 40.03 ± 7.8%
percentage of cells with intact cell membrane as compared to control (HA22T/VGH cells [9]; 24 hrs, 1 μM): 34.24 ± 8.3%
percentage of cells with intact cell membrane as compared to control (HA22T/VGH cells [9]; 72 hrs, 0.01 μM): 92.58 ± 21.3%
percentage of cells with intact cell membrane as compared to control (HA22T/VGH cells [9]; 72 hrs, 0.01 μM, listed as paclitaxel): 92.58%
percentage of cells with intact cell membrane as compared to control (HA22T/VGH cells [9]; 72 hrs, 0.1 μM): 93.38 ± 32.5%
percentage of cells with intact cell membrane as compared to control (HA22T/VGH cells [9]; 72 hrs, 1 μM): 49.32 ± 8.3%
viability at 10 µM (Hep G2 cells [10]; 24 hours): 61.8%
viability at 10 µM (Hep G2 cells [10]; 72 hours): 39.5%
DNA fragmentation (agarose gel, FIG. 3) (Hep G2 cells [11]): induced DNA fragmentation
